# Test results from article PMC5306082, “Physiologically based kinetic modeling of the bioactivation of myristicin” (Archives of Toxicology, 2016).
# What was measured:
# Assay type in all cases: in vitro ADME
# [1] = Glucuronidation of 1′-hydroxymyristicin, human liver S9; settings: both sexes, human, pH 7.4; 1′-hydroxymyristicin to its glucuronide; S9, UDPGA; read-out: Km
# Description: The kinetic constants for the metabolic conversion of 1′-hydroxymyristicin to 1′-hydroxymyristicin glucuronide (HMG) by both male rat and human liver fractions were determined as described previously for the related 1′-hydroxyalkenylbenzenes (Punt et al. [2008]; van den Berg et al. [2012]; Punt et al. [2009]; Martati et al. [2011], [2012]; Al-Subeihi et al. [2011], [2012]). Briefly, incubations contained (final concentrations) 10 mM of UDPGA and 0.5 mg/ml of male Sprague–Dawley or pooled gender human S9 protein in 0.2 M Tris–HCl (pH 7.4) containing 10 mM of MgCl2. To overcome enzyme latency and to obtain maximal glucuronidation activity, incubations containing S9 were pretreated on ice with 0.025 mg/ml alamethicin added from a 200 times concentrated stock dissolved in methanol (Fisher et al. [2000]; Lin and Wong [2002]). After 15 min of alamethicin treatment, samples were pre-incubated at 37 °C for 1 min, and reactions were subsequently started by adding 1′-hydroxymyristicin at final concentrations of 10 to 1200 μM. 1′-Hydroxymyristicin was added from 100 times concentrated stock solutions in DMSO. The reaction mixtures were incubated for 30 and 180 min for rat and human, respectively, and terminated by adding 25 µl (0.25 times the incubation volume) of ice-cold ACN. Blank incubations were carried out in the absence of the cofactor UDPGA. Experiments were performed in triplicate. The longer incubation time in human samples was required due to the lower rate of glucuronidation. The formation of 1′-hydroxymyristicin glucuronide was linear with time and the S9 protein concentration under the experimental conditions described. All samples were centrifuged for 5 min at 16,000×g, and the supernatant was stored at −20 °C until ultra-performance liquid chromatography (UPLC) analysis.
# 1′-Hydroxymyristicin glucuronide was estimated based on the comparison of the peak area of the formed metabolite to the calibration curve of 1′-hydroxymyristicin at a wavelength of 210 nm. The flow rate was 0.6 ml/min. The gradient was made using a mixture of ACN and ultrapure water containing 0.1 % (v/v) TFA.
# [2] = Oxidation of 1′-hydroxymyristicin to 1′-oxomyristicin, rat liver microsomes; settings: rat vs human
# Description: (§1) The kinetic constants for the enzymatic conversion of 1′-hydroxymyristicin to 1′-oxomyristicin were determined using incubation mixtures containing (final concentrations) 3 mM NAD^+, 2 mM GSH, and 1 mg/ml rat or human liver microsomes in 0.2 M Tris–HCl (pH 7.4). GSH was added to the incubation mixtures to trap the reactive 1′-oxo metabolite formed after oxidation of 1′-hydroxymyristicin. The level of GSH in the incubations was optimized in a previous study to obtain maximum scavenging of 1′-oxoestragole (Punt et al. [2009]). To this end, incubations were performed in the presence of increasing concentrations of GSH, ranging from 2 to 10 mM. […] Kinetic constants for this reaction in rat and human liver were derived by performing incubations with NAD^+ as a cofactor, given that in rat and human liver, NAD^+ is mainly present in an oxidized form with levels of NAD^+ being much higher than those of NADH. In a previous study, it was shown that the highest level of 1′-hydroxy alkenylbenzene oxidation occurs in incubations with microsomes in the presence of NAD^+ as cofactor. […] The enzyme responsible for the oxidation may be 17β-hydroxysteroid dehydrogenase type 2 (17β-HSD2) (Punt et al. [2010]). Prior to the addition of 1′-hydroxymyristicin at final concentrations ranging between 10 and 4000 μM to the incubation mixture from 100 times concentrated stock solutions in DMSO, samples were pre-incubated for 1 min at 37 °C. Reactions were terminated after 10 min of incubation at 37 °C by adding 25 μl (0.25 times the incubation volume) of ice-cold ACN. The formation of the GSH conjugate of 1′-oxomyristicin (GS-1′-oxomyristicin) was linear with time and microsomal protein concentration under the experimental conditions used. Blank incubations were performed without the cofactor NAD^+. Incubations were performed in triplicate. All samples were centrifuged for 5 min at 13,000×g, and the supernatant was stored at −20 °C until UPLC analysis.
# (§2) Quantification of GS-1′-oxomyristicin was based on a calibration curve of the GSH adduct of the synthesized 1′-oxymyristicin made as previously described (van den Berg et al. [2012]; Punt et al. [2009]; Martati et al. [2011]; Al-Subeihi et al. [2011]). In short, a 60 μM concentration of the synthetic standard of 1′-oxomyristicin, dissolved in ACN, was incubated with different concentrations of GSH (i.e., 0–20 μM) in 0.2 M Tris–HCl (pH 7.4) for 6 h at 37 °C, resulting in full conversion of the GSH to GS-1′-oxymyristicin. Quantification was done by comparing the peak areas of the formed GS-1′-oxo metabolite in the incubation mixtures with peak areas of the GS-1′-oxymyristicin calibration curve thus obtained at a wavelength of 212 nm. The gradient for analysis of the metabolite consisted of a mixture of ACN and ultrapure water containing 0.1 % (v/v) TFA. The flow rate was 0.6 ml/min, The gradient started with 10 % ACN, increased to 30 % ACN over 2.5 min, after which ACN was increased to 80 % over 0.5 min, kept at 80 % for 0.5 min, followed by a decrease to 10 % over 0.5 min, and finally kept at 10 % for 0.5 min.
# [3] = Oxidation of 1′-hydroxymyristicin to 1′-oxomyristicin, human liver microsomes; settings: human vs rat
# Description: as §1, §2
structure (smiles),measurement,setting,value
"C=CC(O)c1cc(OC)c2c(c1)OCO2 (stereo not drawn) [1′-Hydroxymyristicin, 1′-hydroxymyristicin]",Km at 180 min,[1],3.14 mM
same,"oxidation, fold lower affinity in rat than in human",[2],1.8 fold
same,"oxidation, times more efficient in human liver than in male rat liver",[3],1.2 times
